# Laboratory results: patent publication US20250179027A1, “CYCLOALKYL OR HETEROCYCLYL SUBSTITUTED HETEROARYL COMPOUND, AND COMPOSITION AND USE THEREOF” (Shenzhen TargetRx, Inc., priority 2022, published 2025)
# Legend:
# [1] = target: T1, BTK kinase (Homo sapiens, UniProt Q06187); assay: HTRF kinase activity inhibition assay, BTK; assay type: biochemical; conditions: HTRF TK kit
# T1 construct: purchased Invitrogen PV3587
# Excerpt: (§1) In this assay, the HTRF TK Kit (Catalog No. 62TKOPEC) provided by Cisbio was used to detect the inhibitory activity of compounds on BTK kinase and BTK C481S kinase and the selectivity of compounds relative to EGFR, ITK and TEC kinases.
# (§2) Reagents and consumables: BTK kinase (Invitrogen, Catalog No. PV3587), BTK C481S (Carna, Product No. 08-547), ITK (Carna, Product No. 08-181), EGFR (Carna, Product No. 08-115), TEC (Carna, Product No. 08-182), HTRF-TK kit (Cisbio, Product No. 62TKOPEC), MgCl2 (Sigma, Product No. M1028), MnCl2 (Sigma, Product No. M1787), DTT (Sigma, Product No. D0632), ATP (Sigma, Product No. A7699-1 g), DMSO (Sigma, Product No. D2650), 384-well plate (PE, Product No. 6008280).
# (§3) The entire operation steps were carried out on ice, and the total reaction volume was 10 μL. The compound (4 μL), substrate and ATP (4 μL), kinase (2 μL) were added in sequence to a 384-well plate, and shaked for 30 seconds. After an appropriate time at room temperature, the detection reagent was added. After 1 hour at room temperature, the plate was detected with a microplate reader. The specific steps were as follows: • a) 1× kinase buffer solution required for kinase detection was calculated according to the amount of the detection compound, and prepared as needed; • b) compounds with 2.5×working concentration were prepared, the 100 times gradient concentration solution of compounds was diluted by 4 μL to the desired concentration, mixed well, and added to each well at 4 μL per well; • c) 5×working concentration of substrate and ATP were prepared, mixed in a ratio of 1:1 before adding to a 384-well plate, and added to each well at 4 μL per well; • d) 5×working concentration of kinase was prepared, and 2 μL was added to each well; • e) the plate was shaked on a microplate oscillator for 30 seconds, sealed with a sealing membrane, and reacted at room temperature for an appropriate time; • f) 4×working concentrations of streptavidin XL-665 and TK antibody-cryptate compound were prepared, mixed in a ratio of 1:1 before adding to a 384-well plate, and added to each well at 10 μL per well; • g) the plate was read after reacting at room temperature for 1 hour; • h) the wells with only substrate, ATP and 1% DMSO added but no kinase were blank control wells, and the wells with only substrate, ATP, 1% DMSO and kinase were positive control wells.
# (§4) Readings: The values of 620 nm (cryptate) and 665 nm (XL665) were read with a BioTek Synerg Neo2 microplate reader, the ratio of 665/620 per well was calculated, and the data were exported. Data analysis: IC50 was calculated using GraphPad Prism 7.0 software. The following nonlinear fitting formula was used to obtain the IC50 (half inhibitory concentration) of compounds:
# (§5) [formula] • X: Compound concentration log value • Y: Inhibition rate (% inhibition)
# (§6) The kinase inhibition rate (% inhibition rate) was calculated as: […]
# [2] = target: T2, EGFR (Homo sapiens, UniProt P00533); assay: HTRF kinase activity inhibition assay, EGFR; assay type: biochemical; conditions: HTRF TK kit
# T2 construct: purchased Carna 08-115
# T2 sequence (P00533 669-1210 limits assumed): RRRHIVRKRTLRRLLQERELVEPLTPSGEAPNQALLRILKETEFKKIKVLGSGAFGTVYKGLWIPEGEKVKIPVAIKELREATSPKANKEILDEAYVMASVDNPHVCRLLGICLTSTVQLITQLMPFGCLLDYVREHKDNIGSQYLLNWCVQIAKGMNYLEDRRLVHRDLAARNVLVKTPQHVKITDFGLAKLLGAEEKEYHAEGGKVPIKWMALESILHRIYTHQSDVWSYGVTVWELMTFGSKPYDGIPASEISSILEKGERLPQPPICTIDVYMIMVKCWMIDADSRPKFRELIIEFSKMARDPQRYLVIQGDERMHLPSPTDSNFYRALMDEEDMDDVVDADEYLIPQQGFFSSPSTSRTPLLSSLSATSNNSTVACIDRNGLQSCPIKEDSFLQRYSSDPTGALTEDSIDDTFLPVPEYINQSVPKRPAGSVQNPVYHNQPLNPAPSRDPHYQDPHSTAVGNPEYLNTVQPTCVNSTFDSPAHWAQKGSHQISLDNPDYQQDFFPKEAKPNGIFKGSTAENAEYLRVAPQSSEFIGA
# Excerpt: as §1, §2, §3, §4, §5, §6
# [3] = target: T3, ITK (Homo sapiens, UniProt Q08881); assay: HTRF kinase activity inhibition assay, ITK; assay type: biochemical; conditions: HTRF TK kit
# T3 construct: purchased Carna 08-181
# T3 sequence (Q08881 1-620): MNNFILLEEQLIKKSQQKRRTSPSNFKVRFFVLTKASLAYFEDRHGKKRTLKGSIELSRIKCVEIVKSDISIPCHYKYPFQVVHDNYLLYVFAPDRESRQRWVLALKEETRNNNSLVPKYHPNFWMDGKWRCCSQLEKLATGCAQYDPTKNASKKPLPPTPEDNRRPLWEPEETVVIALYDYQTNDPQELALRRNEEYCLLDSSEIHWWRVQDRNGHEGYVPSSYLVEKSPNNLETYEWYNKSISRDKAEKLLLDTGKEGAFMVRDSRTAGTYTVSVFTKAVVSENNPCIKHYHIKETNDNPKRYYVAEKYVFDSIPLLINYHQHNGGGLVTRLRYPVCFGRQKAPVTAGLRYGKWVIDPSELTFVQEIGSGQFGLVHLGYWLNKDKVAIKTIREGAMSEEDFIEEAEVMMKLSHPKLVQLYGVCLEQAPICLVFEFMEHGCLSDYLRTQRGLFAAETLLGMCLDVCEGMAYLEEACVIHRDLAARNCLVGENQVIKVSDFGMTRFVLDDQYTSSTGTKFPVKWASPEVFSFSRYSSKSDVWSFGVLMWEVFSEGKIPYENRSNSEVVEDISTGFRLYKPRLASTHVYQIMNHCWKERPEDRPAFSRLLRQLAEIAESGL
# Excerpt: as §1, §2, §3, §4, §5, §6
# [4] = target: T4, phosphorylated BTK Y223 in NIH/3T3 BTK WT cells (Homo sapiens, UniProt Q06187); assay: Phosphor-BTK(Y223) assay, NIH/3T3 BTK WT cells; assay type: cell-based; conditions: phosphorylated BTK Y223, NIH/3T3 BTK WT cells; read-out: NIH/3T3 BTK-WT pBTK IC50
# T4 construct: expressed in transfected cells; host or cells: NIH/3T3 (mouse fibroblasts) engineered to express BTK WT
# T4 sequence (Q06187 whole entry): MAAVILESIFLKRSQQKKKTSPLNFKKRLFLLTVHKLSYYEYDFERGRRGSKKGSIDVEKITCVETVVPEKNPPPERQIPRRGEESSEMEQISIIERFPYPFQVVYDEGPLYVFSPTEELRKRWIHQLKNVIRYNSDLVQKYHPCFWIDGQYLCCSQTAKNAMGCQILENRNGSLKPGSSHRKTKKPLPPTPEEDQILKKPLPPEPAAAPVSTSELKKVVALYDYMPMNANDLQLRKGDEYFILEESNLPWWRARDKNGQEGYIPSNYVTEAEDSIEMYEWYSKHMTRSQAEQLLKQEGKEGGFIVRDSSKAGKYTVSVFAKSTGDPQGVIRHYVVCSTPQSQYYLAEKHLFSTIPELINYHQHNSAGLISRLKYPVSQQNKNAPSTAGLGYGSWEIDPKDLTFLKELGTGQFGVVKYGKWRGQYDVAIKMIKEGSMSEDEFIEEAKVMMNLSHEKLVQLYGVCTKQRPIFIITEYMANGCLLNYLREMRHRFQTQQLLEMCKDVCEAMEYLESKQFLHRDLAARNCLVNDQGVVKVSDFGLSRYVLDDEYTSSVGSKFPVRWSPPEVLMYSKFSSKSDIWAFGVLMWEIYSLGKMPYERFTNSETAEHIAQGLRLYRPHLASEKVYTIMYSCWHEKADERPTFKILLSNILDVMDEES
# Summary of the method: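 NIH/3T3 cells expressing BTK WT (7.5k/well) or C481S (10k/well) were treated with compound for 0.5 h at 37 °C, then 1 mM Na3VO4 was added for 2 h. Lysates were probed overnight at room temperature with HTRF p-BTK(Y223) cryptate/d2 antibodies (665/620 nm ratio). IC50 came from nonlinear fit of % inhibition against log concentration.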
# T1 sequence (Q06187 whole entry): as above
IC50 [1] [nM],IC50 [2] [nM],IC50 [3] [nM],IC50 [4] [nM],Structure (SMILES)
≤ 10,10 to 50,> 10000,≤ 25,"COc1ccc(F)cc1C(=O)NCc1ccc(-c2nc(C3CCCC(O)C3)n3ccnc(N)c23)cc1 (stereo not shown) [Example 20, N-(4-(8-amino-3-(3-hydroxycyclohexanyl)imidazo[1,5-a]pyrazin-1-yl)benzyl)-5-fluoro-2-methoxybenzamide]"
≤ 10,10 to 50,> 10000,≤ 25,"COc1ccc(F)cc1C(=O)NCc1ccc(-c2nn([C@H]3CC[C@H](CO)CC3)c3ncnc(N)c23)cc1 [Example 56, trans-N-(4-(4-amino-1-((1R,4R)-4-(hydroxymethyl)cyclohexyl)-1H-pyrazolo[3,4-d]pyrimidin-3-yl)benzyl)-5-fluoro-2-methoxybenzamide]"
≤ 10,≤ 10,> 10000,≤ 25,"COc1ccc(F)cc1C(=O)NCc1ccc(-c2cc(C3CCC(CO)OC3)n3ncnc(N)c23)cc1 (single isomer, unassigned) [Example 60, N-(4-(4-amino-7-(6-(hydroxymethyl)tetrahydro-2H-pyran-3-yl)pyrrolo[2,1-f][1,2,4]triazin-5-yl)benzyl)-5-fluoro-2-methoxybenzamide]"
≤ 10,10 to 50,> 10000,≤ 25,"COc1ccc(F)cc1C(=O)NCc1ccc(-c2nc(C3CCCC(O)C3)n3ccnc(N)c23)cc1 (single isomer, unassigned) [Example 22, N-(4-(8-amino-3-(3-hydroxycyclohexanyl)imidazo[1,5-a]pyrazin-1-yl)benzyl)-5-fluoro-2-methoxybenzamide]"
≤ 10,50 to 100,> 10000,≤ 25,"COc1ccc(F)cc1C(=O)NCc1ccc(-c2nn(C3CCC(CO)OC3)c3ncnc(N)c23)cc1 (single isomer, unassigned) [Example 18, N-(4-(4-amino-1-(6-(hydroxymethyl)tetrahydro-2H-pyran-3-yl)-1H-pyrazolo[3,4-d]pyrimidin-3-yl)benzyl)-5-fluoro-2-methoxybenzamide]"
≤ 10,10 to 50,> 10000,≤ 25,"COc1ccc(F)cc1C(=O)NCc1ccc(-c2nn([C@H]3CC[C@@H](CO)CC3)c3ncnc(N)c23)cc1 [Example 55, cis-N-(4-(4-amino-1-((1S,4S)-4-(hydroxymethyl)cyclohexyl)-1H-pyrazolo[3,4-d]pyrimidin-3-yl)benzyl)-5-fluoro-2-methoxybenzamide]"
10 to 50,10 to 50,> 10000,25 to 50,"COc1ccc(F)cc1C(=O)NCc1ccc(-c2cc(C3CCC(CO)OC3)n3ncnc(N)c23)cc1 (single isomer, unassigned) [Example 59, N-(4-(4-amino-7-(6-(hydroxymethyl)tetrahydro-2H-pyran-3-yl)pyrrolo[2,1-f][1,2,4]triazin-5-yl)benzyl)-5-fluoro-2-methoxybenzamide]"
≤ 10,50 to 100,> 10000,≤ 25,"COc1ccc(F)cc1C(=O)NCc1ccc(-c2nn(C3CCC(O)CC3)c3ncnc(N)c23)cc1 [Example 29, N-(4-(4-amino-1-((1R,4R)-4-hydroxycyclohexyl)-1H-pyrazolo[3,4-d]pyrimidin-3-yl)benzyl)-5-fluoro-2-methoxybenzamide]"
≤ 10,100 to 1000,> 10000,≤ 25,"COc1ccc(F)cc1C(=O)NCc1ccc(-c2nn(C3CCC(O)C3)c3ncnc(N)c23)cc1 (single isomer, unassigned) [Example 31, N-(4-(4-amino-1-(3-hydroxycyclopentanyl)-1H-pyrazolo[3,4-d]pyrimidin-3-yl)benzyl)-5-fluoro-2-methoxybenzamide]"
≤ 10,50 to 100,> 10000,≤ 25,"COc1ccc(F)cc1C(=O)NCc1ccc(-c2nn([C@H]3CC[C@@H](O)CC3)c3ncnc(N)c23)cc1 [Example 30, N-(4-(4-amino-1-((1S,4S)-4-hydroxycyclohexyl)-1H-pyrazolo[3,4-d]pyrimidin-3-yl)benzyl)-5-fluoro-2-methoxybenzamide]"

Structure (SMILES),IC50 [1] [nM],IC50 [2] [nM],IC50 [3] [nM],IC50 [4] [nM]
"COc1ccc(F)cc1C(=O)NCc1ccc(-c2nn(C3CCCC(O)C3)c3ncnc(N)c23)cc1 (single isomer, unassigned) [Example 5]",10 to 50,50 to 100,> 10000,≤ 25
COc1ccc(F)cc1C(=O)NCc1ccc(-c2nn(C3CCCC(O)C3)c3ncnc(N)c23)cc1 (stereo not shown) [Example 4],≤ 10,100 to 1000,> 10000,≤ 25
"COc1ccc(F)cc1C(=O)NCc1ccc(-c2nn(C3CCCC(O)C3)c3ncnc(N)c23)cc1 (single isomer, unassigned) [Example 8]",–,100 to 1000,> 10000,≤ 25
"COc1ccc(F)cc1C(=O)NCc1ccc(-c2nn(C3CCCC(O)C3)c3ncnc(N)c23)cc1 (single isomer, unassigned) [Example 6]",≤ 10,50 to 100,> 10000,≤ 25
"COc1ccc(F)cc1C(=O)NCc1ccc(-c2nn(C3CCCC(O)C3)c3ncnc(N)c23)cc1 (single isomer, unassigned) [Example 7]",–,100 to 1000,> 10000,≤ 25
